Source: the supplement of paper PMC11208160

Test: recombinant barcode read abundance after kanamycin selection (control-corrected) (log10(CPM+1)); higher = more efficient recombination; sequences stand for … in AGTGCAGAGAAAATCGGCCAGTTTTCTCTGCCTGCAGTCCGCATGCCGT…AGATTTATGCAGCGGACTGCCTTTCTCCCAAAGTGATAAACCGGACAGTATCATGGACCGGTTTTCCCGGTAATCCGTATTTGCAAGGTTGGTTTCACT; site = the 11-nt target
How it was run: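 Recombination efficiency in this pooled E. coli screen uses counts per million of barcodes at recombinant junctions, averaged and corrected against the control. The reported form is log10(CPM+1). Two replicates were plated on chloramphenicol/ampicillin LB agar as control and two on chloramphenicol/ampicillin/kanamycin with 0.1 mM IPTG.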
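Also: IS621 recombinase and bridge RNA in Escherichia coli cells.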

Row | Sequence | recombinant barcode read abundance (log10)
1 | ATAATAGCTTGGGTTCTAACCTGTTGCCT (site ATAAGAGCTAG) | 0.0465
2 | ATAATAGCTTGGGTTCTAACCTGTTGCCT (site ATAATAGCTAG) | 1.63
3 | ATACCACCTTGGGTTCTAACCTGTTGCCT (site AAACCACCTAG) | 0.278
4 | ATACCACCTTGGGTTCTAACCTGTTGCCT (site ACACCACCTAG) | 1.24
5 | ATACCACCTTGGGTTCTAACCTGTTGCCT (site AGACCACCTAG) | 0.431
6 | ATACCACCTTGGGTTCTAACCTGTTGCCT (site ATACCACCTAG) | 1.77
7 | ATACCTCCTTGGGTTCTAACCTGTTGCCT (site ATACCTCCTAG) | 1.69
8 | ATACCTCCTTGGGTTCTAACCTGTTGCCT (site CTAACTCCTAG) | 0.148
9 | ATACGTCCTTGGGTTCTAACCTGTTGCAT (site AGACGTCCTAC) | 0.224
10 | ATACGTCCTTGGGTTCTAACCTGTTGCAT (site ATACGTCCTAT) | 1.12
11 | ATAGCCACTTGGGTTCTAACCTGTTGCCT (site ATAGCAACTAG) | 0.141
12 | ATAGCCACTTGGGTTCTAACCTGTTGCCT (site ATAGCCACTAG) | 1.02
13 | ATAGCCACTTGGGTTCTAACCTGTTGCCT (site ATAGCGACTAG) | 0.0246
14 | ATAGCCACTTGGGTTCTAACCTGTTGCCT (site ATAGCTACTAG) | 0.0679
15 | ATAGCGACTTGGGTTCTAACCTGTTGCCT (site ATAGCAACTAG) | 1.18
16 | ATAGCGACTTGGGTTCTAACCTGTTGCCT (site ATAGCCACTAG) | 0.13
17 | ATAGCGACTTGGGTTCTAACCTGTTGCCT (site ATAGCGACTAG) | 1.54
18 | ATAGCGACTTGGGTTCTAACCTGTTGCCT (site ATAGCTACTAG) | 0
19 | ATAGGAACTTGGGTTCTAACCTGTTGCCT (site ATAGGAACTAG) | 1.4
20 | ATAGGAACTTGGGTTCTAACCTGTTGCCT (site ATGGGCACTAG) | 0.0276
21 | ATAGGACCTTGGGTTCTAACCTGTTGCAG (site ATAGGACCTCT) | 2.75
22 | ATAGGACCTTGGGTTCTAACCTGTTGCAG (site ATATGTCCTCT) | 0.328

Row | Sequence | recombinant barcode read abundance (log10)
23 | ATAGGACCTTGGGTTCTAACCTGTTGCCA (site ATAGGACCTCG) | 0.653
24 | ATAGGACCTTGGGTTCTAACCTGTTGCCA (site ATAGGACCTTG) | 1.57
25 | ATAGGGACTTGGGTTCTAACCTGTTGCCT (site ATAGGGACTAG) | 2.31
26 | ATAGGGACTTGGGTTCTAACCTGTTGCCT (site GTAGCGACTAG) | 0.177
27 | ATAGGGACTTGGGTTCTAACCTGTTGCTA (site ATAAGGACTTA) | 1.97
28 | ATAGGGACTTGGGTTCTAACCTGTTGCTA (site ATACGGACTTA) | 0.291
29 | ATAGGGACTTGGGTTCTAACCTGTTGCTA (site ATAGGGACTTA) | 2.91
30 | ATAGGGACTTGGGTTCTAACCTGTTGCTA (site ATATGGACTTA) | 0.759
31 | ATAGTCCCTTGGGTTCTAACCTGTTGCCT (site ATAGTCCCTAG) | 2.25
32 | ATAGTCCCTTGGGTTCTAACCTGTTGCCT (site ATGGTCCCTAG) | 0.644
33 | ATAGTTACTTGGGTTCTAACCTGTTGCCT (site ATAGTTACTAG) | 1.73
34 | ATAGTTACTTGGGTTCTAACCTGTTGCCT (site ATGATTACTAG) | 0.129
35 | ATATACGCTTGGGTTCTAACCTGTTGCCT (site ATATACGCTAG) | 1.84
36 | ATATACGCTTGGGTTCTAACCTGTTGCCT (site CTATAGGCTAG) | 0.0578
37 | ATATCGTCTTGGGTTCTAACCTGTTGCCT (site ATATCGTCTAG) | 1.61
38 | ATATCGTCTTGGGTTCTAACCTGTTGCCT (site CTATCGTCTAG) | 0.0269
39 | ATATGCGCTTGGGTTCTAACCTGTTGCCG (site ATATGAGCTCG) | 0.108
40 | ATATGCGCTTGGGTTCTAACCTGTTGCCG (site ATATGCGCTCG) | 1.43
41 | ATATGCGCTTGGGTTCTAACCTGTTGCCG (site ATATGGGCTCG) | 0.0781
42 | ATATGCGCTTGGGTTCTAACCTGTTGCCG (site ATATGTGCTCG) | 0.262
43 | ATATGTACTTGGGTTCTAACCTGTTGCAG (site ATACGGACTCT) | 0
44 | ATATGTACTTGGGTTCTAACCTGTTGCAG (site ATATGTACTCT) | 2.1

Row | Sequence | recombinant barcode read abundance (log10)
45 | ATATGTGCTTGGGTTCTAACCTGTTGCCG (site ATATGAGCTCG) | 0.0211
46 | ATATGTGCTTGGGTTCTAACCTGTTGCCG (site ATATGCGCTCG) | 0.0242
47 | ATATGTGCTTGGGTTCTAACCTGTTGCCG (site ATATGGGCTCG) | 0.108
48 | ATATGTGCTTGGGTTCTAACCTGTTGCCG (site ATATGTGCTCG) | 1.71
49 | ATCAAGACTTGGGTTCTAACCTGTTGCCT (site ATAAAGACTAG) | 0.266
50 | ATCAAGACTTGGGTTCTAACCTGTTGCCT (site ATCAAGACTAG) | 1.42
51 | ATCAAGACTTGGGTTCTAACCTGTTGCCT (site ATGAAGACTAG) | 0.252
52 | ATCAAGACTTGGGTTCTAACCTGTTGCCT (site ATTAAGACTAG) | 0.272
53 | ATCACACCTTGGGTTCTAACCTGTTGCCT (site ATCACACCTAG) | 0.761
54 | ATCACACCTTGGGTTCTAACCTGTTGCCT (site CTCACACCTAG) | 0.102
55 | ATCACGTCTTGGGTTCTAACCTGTTGCCT (site ATCACGTCTAG) | 1.4
56 | ATCACGTCTTGGGTTCTAACCTGTTGCCT (site CAGCATCCTCT) | 0.0385
57 | ATCAGTTCTTGGGTTCTAACCTGTTGCTG (site ATCAGTTCTCA) | 0.074
58 | ATCAGTTCTTGGGTTCTAACCTGTTGCTG (site GATTTCGCTAG) | 0.155
59 | ATCCAACCTTGGGTTCTAACCTGTTGCCT (site ATCCAACCTAG) | 1.89
60 | ATCCAACCTTGGGTTCTAACCTGTTGCCT (site ATCCACCCTAG) | 0.123
61 | ATCCAACCTTGGGTTCTAACCTGTTGCCT (site ATCCAGCCTAG) | 0.348
62 | ATCCAACCTTGGGTTCTAACCTGTTGCCT (site ATCCATCCTAG) | 0.0128
63 | ATCCACCCTTGGGTTCTAACCTGTTGCCT (site ATCCAACCTAG) | 0.15
64 | ATCCACCCTTGGGTTCTAACCTGTTGCCT (site ATCCACCCTAG) | 2.07
65 | ATCCACCCTTGGGTTCTAACCTGTTGCCT (site ATCCAGCCTAG) | 0.207
66 | ATCCACCCTTGGGTTCTAACCTGTTGCCT (site ATCCATCCTAG) | 0.0749

Row | Sequence | recombinant barcode read abundance (log10)
67 | ATCCACCCTTGGGTTCTAACCTGTTGCGG (site ATCCACCCTCC) | 3.07
68 | ATCCACCCTTGGGTTCTAACCTGTTGCGG (site GACCACCCTCC) | 0.218
69 | ATCCATCCTTGGGTTCTAACCTGTTGCCT (site ATCCAACCTAG) | 0.00851
70 | ATCCATCCTTGGGTTCTAACCTGTTGCCT (site ATCCACCCTAG) | 0.0821
71 | ATCCATCCTTGGGTTCTAACCTGTTGCCT (site ATCCAGCCTAG) | 0.0583
72 | ATCCATCCTTGGGTTCTAACCTGTTGCCT (site ATCCATCCTAG) | 0.969
73 | ATCCCATCTTGGGTTCTAACCTGTTGCCT (site ATACCATCTAG) | 0.383
74 | ATCCCATCTTGGGTTCTAACCTGTTGCCT (site ATCCCATCTAG) | 0.619
75 | ATCCCATCTTGGGTTCTAACCTGTTGCCT (site ATGCCATCTAG) | 0.0333
76 | ATCCCATCTTGGGTTCTAACCTGTTGCCT (site ATTCCATCTAG) | 0.0512
77 | ATCCCCTCTTGGGTTCTAACCTGTTGCCT (site ATCCCCTCTAG) | 2.53
78 | ATCCCCTCTTGGGTTCTAACCTGTTGCCT (site ATCGCCTCTAG) | 0.031
79 | ATCGAGTCTTGGGTTCTAACCTGTTGCCT (site AACGAGTCTAG) | 0.139
80 | ATCGAGTCTTGGGTTCTAACCTGTTGCCT (site ACCGAGTCTAG) | 1.11
81 | ATCGAGTCTTGGGTTCTAACCTGTTGCCT (site AGCGAGTCTAG) | 0.734
82 | ATCGAGTCTTGGGTTCTAACCTGTTGCCT (site ATCGAGTCTAG) | 1.56
83 | ATCGATGCTTGGGTTCTAACCTGTTGCCT (site ATCGATGCTAG) | 0.545
84 | ATCGATGCTTGGGTTCTAACCTGTTGCCT (site ATCTATTCTAG) | 0.0828
85 | ATCGCCTCTTGGGTTCTAACCTGTTGCCT (site ATCCCCTCTAG) | 0.328
86 | ATCGCCTCTTGGGTTCTAACCTGTTGCCT (site ATCGCCTCTAG) | 0.742
